Key:
[1] = Solubility of biphenyltetracarboxylic acid isomers in water or an aqueous solvent; format: physicochemical; conditions: order among the biphenyltetracarboxylic acid isomers; FIG. 2 in water at varying temperatures
Protocol: The solubility was measured by maintaining each of a mixture of 9.35 g of 2,3,3',4'-biphenyltetracarboxylic acid and 10 ml. of water and a mixture of 7.53 g of 3,4,3',4'-biphenyltetracarboxylic acid and 20 ml. of water at a predetermined temperature to dissolve each of the isomers in water, separating the insoluble matter by filtration, drying the filtrate, and weighing it, to thereby obtained the amount of each isomer dissolved at the specified temperature.

[2] = Solubility of biphenyltetracarboxylic dianhydride isomers in aliphatic acid anhydride or ketone; format: physicochemical; conditions: compared with the 3,4,3',4'-isomer; FIG. 1 in acetic anhydride at varying temperatures
Protocol: Referring to FIG. 1, the ordinate represents the solubility (g/acetic anhydride: 10 ml.) and the abscissa the temperature in °C. The measurement of the solubility was performed by maintaining separate mixtures of 2.5 g of the 2,3,3',4'-isomer and 5 ml. of acetic anhydride and a mixture of 1 g of the 3,4,3',4'-isomer and 20 ml. of acetic anhydride at a predetermined temperature to dissolve each of the isomers in the acetic anhydride, separating the insoluble matter by filtration, drying the filtrate and weighing it, to thereby obtain the amount of the isomer dissolved in […] at the specified temperature.

SMILES	solubility in water or in an aqueous solvent [1]	solubility in an aliphatic acid anhydride or ketone [2]
O=C(O)c1cccc(-c2cccc(C(=O)O)c2C(=O)O)c1C(=O)O [2,3,2',3'-isomer, 2,3,2',3'-biphenyltetracarboxylic acid]	largest solubility in water or in an aqueous solvent	
O=C(O)c1ccc(-c2cccc(C(=O)O)c2C(=O)O)cc1C(=O)O [2,3,3',4'-biphenyltetracarboxylic acid]	followed by the 2,3,3',4'-isomer	
O=C1OC(=O)c2cc(-c3cccc4c3C(=O)OC4=O)ccc21 [2,3,3',4'-biphenyltetracarboxylic dianhydride]		more soluble in an aliphatic acid anhydride or ketone than the 3,4,3',4'-isomer
O=C(O)c1ccc(-c2ccc(C(=O)O)c(C(=O)O)c2)cc1C(=O)O [3,4,3',4'-biphenyltetracarboxylic acid]	the 3,4,3',4'-isomer in order of decreasing solubility	

From patent US3940426A, “Process for producing biphenyltetracarboxylic dianhydrides” (UBE Industries, Ltd., priority 1972, dated 1976)
